Results: patent publication US20200062712A1, “ALDEHYDE TRAPPING COMPOUNDS AND USES THEREOF” (Aldeyra Therapeutics, Inc., priority 2016, published 2020)

Key:
[1] = Rate of formation of aldehyde (4-HNE) adducts, HPLC product peak over time; settings: for Formation of Product 7 Hours (ranking, most effective to least) / Formation of Product 23 Hours (ranking, most effective to least): rank 1 = most effective; for Gradient (rate of product peak increase, formation of aldehyde adduct): best fit line
Protocol: It is not possible to conclude if this is the result of poor dissociation (from cyclodextrin) or poor interaction with the aldehyde. Best fit lines over this period give excellent fit to data. […] It can be used to relatively rank each of the samples examined, including NS2. The data were first evaluated over a 7 h time window.
Similar results were obtained when the window was extended to 23 h. However, two of the compounds yielded lower R. Sq. values in this context.
During this time period 3 of the 5 samples reached equilibrium.

[2] = tested on: brain slices of B6.129-Aldh5a1tm1Kmg/J (SSADH null) mice; assay: Ex vivo SSADH study: GABA and GHB content of brain slices and incubation media by HPLC; format: cell-based; settings: 100 μg/mL, 24 hours incubation; SSADH null mouse brain slices
Protocol: Three and one half (3.5) days after birth, B6.129-Aldh5a1^tm1Kmg/J (SSADH null) mice and wild type (wt) littermates animals were sacrificed and brains were harvested. […] Brain slices and the incubation media (sup) were then analyzed by HPLC for GHB and GABA content.

[3] = Formation of 4-HNE adduct with exemplary compounds (AUC of adduct over time); settings: one equivalent of 4-HNE and 2 equivalents of compound; performed twice
Protocol: The ability of exemplary compounds to react with 4-HNE and form the corresponding adduct was measured. All compounds were analyzed by HPLC at 254 nm for their purity prior to the reaction.
Area under the curve (AUC) of each adduct was plotted over time.

[4] = Consumption of 4-HNE over time, HPLC at 254 nm; settings: for Consumption of 4-HNE 7 Hours (ranking, most effective to least): rank 1 = most effective; for Consumption of 4-HNE 23 Hours (ranking, most effective to least): small differences between samples ranking 1-4, essentially identical; for Decrease in HNE versus corresponding increase in adduct: one-week time period
Description: Five of 6 samples show consumption of 4-HNE. One sample (2-(3-aminoquinolin-2-yl)propan-2-ol) overlaps the 4-HNE HPLC peak using the current method. Best fit lines over this period give poorer fit to data than product formation data. Rate of 4-HNE consumption can be used as an approximation of binding kinetics.
The samples appeared to reach equilibrium, with the ongoing decrease in HNE amounts possibly due to another degradative pathway.

abcr−/− knockout mice = format: in vivo; settings: 10 mg/kg IP daily for 56 days, p=0.011
Protocol: This experiment is designed to establish proof of concept that chronic intraperitoneal administration of a RAL-trap compound lowers the accumulation rate of A2E in B6:129SvEv-Abcr (abcr−/−) mice.
The study was performed with B6:129SvEv-Abcr (abcr−/−) mice. Treatment groups included 24 mice (males and females) per treatment condition. Each animal was treated with one of the following conditions: • Control: a commercially available compound known clinically to modulate retinal function in humans and known experimentally to form a Schiff base adduct with free RAL, both in vitro and in vivo in animal models. • Vehicle • Compound • Untreated
A third group of animals served as untreated controls and were sacrificed on Day 1 of the study.
The experiments described herein used a variety of biology and biochemistry services. If necessary, non-toxic doses of compounds of the invention, formulated for treatment with an eye drop or other formations, may be established, e.g., in the rabbit with an ocular irritation protocol. […] Light responses were characterized by ERG (Weng, et al., Cell 98:13, 1999). Intracellular A2E concentration of retinal RPE cell extracts were measured using an analytical method such as those described by Karan et al., 2005; Radu et al., 2003; and Parish et al., PNAS 95:14609, 1998.

[5] = 7 h time window, samples in cyclodextrin

Which “Formation of Product 7 Hours (ranking, most effective to least)” value (from here on “Formation of Product 7 Hours”) [1] does the source give for `CC(C)(O)c1nc2ccccc2cc1N` [Compound I-1, 2-(3-aminoquinolin-2-yl)propan-2-ol] here?
Its value is 1.

What about the “Formation of Product 23 Hours (ranking, most effective to least)” value (shortened to “Formation of Product 23 Hours”) [1] of the same compound?
The value was 1.

What about the “Gradient (rate of product peak increase, formation of aldehyde adduct)” value [1, 5] of the same compound?
The value was “(Gradient 3.68, R”.

And the “Gradient (rate of product peak increase, formation of aldehyde adduct)” value ([1]; window extended to 23 h)?
The value was “(Gradient 1.99, R”.

And the “GABA content compared to the controls” value [2]?
The value was “decreased”.

And the “GHB content compared to the controls” value [2]?
The value was “decreased”.

What about the “Formation of the corresponding adduct with 4-HNE” value [3] of the same compound?
The value was “formed the corresponding adduct with 4-HNE”.

Which “Formation of Product 7 Hours” value [1] does the source give for `CC(C)(O)c1nc2cccc(Cl)c2cc1N` [Compound I-2, 2-(3-amino-5-chloroquinolin-2yl)propan-2-ol] here?
The value was 6.

And the “Formation of Product 23 Hours” value [1]?
Its value is 6.

And the “Gradient (rate of product peak increase, formation of aldehyde adduct)” value [1, 5]?
Its value is “(Gradient 0.86, R”.

What about the “Gradient (rate of product peak increase, formation of aldehyde adduct)” value ([1]; window extended to 23 h) of the same compound?
The value was “(Gradient 0.44, R”.

What about the “Consumption of 4-HNE 7 Hours (ranking, most effective to least)” value (“Consumption of 4-HNE 7 Hours” for short) [4] of the same compound?
The value was 3.

What about the “Consumption of 4-HNE 23 Hours (ranking, most effective to least)” value (shortened to “Consumption of 4-HNE 23 Hours”) [4] of the same compound?
Its value is 2.

And the “Gradient (rate of 4-HNE consumption)” value ([4]; 23 h)?
Its value is “(Gradient −0.04, R”.

What about the “Gradient (rate of 4-HNE consumption)” value ([4]; first 7 h, analysis at 254 nm) of the same compound?
Its value is “(Gradient −0.05, R”.

For `CC(C)(O)c1nc2cc(Cl)ccc2cc1N` [Compound I-3, 2-(3-amino-7-chloroquinolin-2-yl)propan-2-ol], which “Formation of Product 7 Hours” value [1] is on record?
Its value is 3.

What about the “Formation of Product 23 Hours” value [1] of the same compound?
Its value is 3.

What about the “Gradient (rate of product peak increase, formation of aldehyde adduct)” value [1, 5] of the same compound?
The value was “(Gradient 2.02, R”.

What about the “Gradient (rate of product peak increase, formation of aldehyde adduct)” value ([1]; window extended to 23 h) of the same compound?
The value was “(Gradient 1.21, R”.

And the “Consumption of 4-HNE 7 Hours” value [4]?
The value was 2.

And the “Consumption of 4-HNE 23 Hours” value [4]?
Its value is 1.

What about the “Gradient (rate of 4-HNE consumption)” value ([4]; 23 h) of the same compound?
Its value is “(Gradient −0.05, R”.

What about the “Gradient (rate of 4-HNE consumption)” value ([4]; first 7 h, analysis at 254 nm) of the same compound?
The value was “(Gradient −0.06, R”.

What about the “Decrease in HNE versus corresponding increase in adduct” value [4] of the same compound?
Its value is “decrease in HNE is greater than the corresponding increase in adduct”.

For `CC(C)(O)c1nc2c(Cl)cccc2cc1N` [Compound I-4, 2-(3-amino-8-chloroquinolin-2-yl)propan-2-ol], which “Formation of Product 7 Hours” value [1] is on record?
Its value is 5.

And the “Formation of Product 23 Hours” value [1]?
The value was 5.

What about the “Gradient (rate of product peak increase, formation of aldehyde adduct)” value [1, 5] of the same compound?
Its value is “(Gradient 1.18, R”.

What about the “Gradient (rate of product peak increase, formation of aldehyde adduct)” value ([1]; window extended to 23 h) of the same compound?
Its value is “(Gradient 0.81, R”.

And the “Consumption of 4-HNE 7 Hours” value [4]?
Its value is 5.

What about the “Consumption of 4-HNE 23 Hours” value [4] of the same compound?
The value was 5.

What about the “Gradient (rate of 4-HNE consumption)” value ([4]; 23 h) of the same compound?
The value was “(Gradient −0.02, R”.

And the “Gradient (rate of 4-HNE consumption)” value ([4]; first 7 h, analysis at 254 nm)?
Its value is “(Gradient −0.01, R”.

And the “Decrease in HNE versus corresponding increase in adduct” value [4]?
The value was “decrease in HNE is greater than the corresponding increase in adduct”.

Which “Formation of Product 7 Hours” value [1] does the source give for `CC(C)(O)c1nc2ccc(Br)cc2cc1N` [Compound I-5, 2-(3-amino-6-bromoquinolin-2-yl)propan-2-ol] here?
Its value is 4.

And the “Formation of Product 23 Hours” value [1]?
Its value is 4.

What about the “Gradient (rate of product peak increase, formation of aldehyde adduct)” value [1, 5] of the same compound?
Its value is “(Gradient 1.63, R”.

And the “Gradient (rate of product peak increase, formation of aldehyde adduct)” value ([1]; window extended to 23 h)?
The value was “(Gradient 1.16, R”.

And the “Consumption of 4-HNE 7 Hours” value [4]?
Its value is 4.

And the “Consumption of 4-HNE 23 Hours” value [4]?
Its value is 4.

And the “Gradient (rate of 4-HNE consumption)” value ([4]; 23 h)?
The value was “(Gradient −0.04, R”.

And the “Gradient (rate of 4-HNE consumption)” value ([4]; first 7 h, analysis at 254 nm)?
Its value is “(Gradient −0.04, R”.

What does the source list for `CC(C)(O)c1nc2ccc(Cl)cc2cc1N` [NS2, 2-(3-amino-6-chloroquinolin-2-yl)propan-2-ol, reference compound]?
Formation of Product 7 Hours (ranking, most effective to least) [1]: 2; Formation of Product 23 Hours (ranking, most effective to least) [1]: 2; Gradient (rate of product peak increase, formation of aldehyde adduct) [1, 5]: (Gradient 2.22, R.; Gradient (rate of product peak increase, formation of aldehyde adduct) ([1]; window extended to 23 h): (Gradient 1.33, R.; Consumption of 4-HNE 7 Hours (ranking, most effective to least) [4]: 1; Consumption of 4-HNE 23 Hours (ranking, most effective to least) [4]: 3; Gradient (rate of 4-HNE consumption) ([4]; 23 h): (Gradient −0.04, R.; Gradient (rate of 4-HNE consumption) ([4]; first 7 h, analysis at 254 nm): (Gradient −0.15, R.; Reduction of formation of A2E compared with vehicle-treated controls (abcr−/− knockout mice): 71%; GABA content compared to the controls [2]: decreased; GHB content compared to the controls [2]: decreased; Formation of the corresponding adduct with 4-HNE [3]: formed the corresponding adduct with 4-HNE
